What was measured:
[1] = test system: human hair follicles-derived dermal papilla cells; assay: MTT cell division and activation in dermal papilla cells; format: cell-based; conditions: peptide 0.5 μg/ml and 5 μg/ml, 48 hours, minoxidil 1 mM positive control
Description: (§1) Primary cultured human hair follicles-derived dermal papilla cells and outer root sheath cells were subcultured to passages 2 to 3, and then treated with minoxidil, which has been conventionally used as an agent for preventing hair loss and treating hair growth as a positive control at a concentration of 1 mM, and separately treated with the adiponectin-derived peptide of the present invention prepared in Example 1 at concentrations of 0.5 μg/ml and 5 μg/ml. After 48 hours, the activated living cells were stained with an MTT solution and compared with a negative control group, and the degree of division and activation of the cells was confirmed.

[2] = test system: human hair follicles-derived outer root sheath cells; assay: MTT cell division and activation in outer root sheath cells; format: cell-based; conditions: peptide 0.5 μg/ml and 5 μg/ml, 48 hours, minoxidil 1 mM positive control
Description: as §1

Row | Substance | cell division of dermal papilla cells [1] | cell division of outer root sheath cells [2]
1 | NIPGL (P10 peptide from adiponectin (NIPGL)) [adiponectin-derived 5-mer peptide] | more excellent effect than minoxidil | more excellent effect than minoxidil
2 | GLYYF (P5 peptide from adiponectin (GLYYF)) [adiponectin-derived 5-mer peptide] | more excellent effect than minoxidil | more excellent effect than minoxidil
